This is an account of results in patent US11345702B1 (Myoforte Therapeutics, Inc., priority 2020, dated 2022).

Series [1] concerns the target 15-PGDH/HPGD (Homo sapiens (Human), UniProt P15428). The series is described as follows: hPGDH inhibitor screening biochemical assay. To be noted: read-out: hPGDH: Average IC50. The essentials:
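Recombinant human 15-PGDH (10 nM) pre-incubated with compounds 10 min at 37 °C, then 15 μM PGE2 and 0.25 mM NAD+ added for 10 min at room temperature in 50 mM Tris-HCl pH 7.5, 0.01% Tween 20. NADH fluorescence read at ex/em 340/485 nm. IC50 from 10-point curves, four-parameter fit versus 1% DMSO.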

The test system of series [2] is A549 cells. The experiment in a line: A549 cell-based assay (PGE2 level). As for the experimental part: 30,000 A549 cells per well were seeded into a tissue culture treated flat bottom 96 well plate, and incubated for 24 hours in a 37° C., […] incubator. After 24 hours of incubation, complete media were replaced with 100 μL of low serum (F12K+1% FBS) media and the plate was incubated for 24 hours in a 37° C., 5% CO2 incubator. After 24 hours of incubation, low serum media was replaced with 80 μL of complete medium (F12K+10% FBS) and 10 μL (10× concentration) of compounds were added and incubated at 37° C. for 30 minutes followed by stimulation of 10 μL (10× concentration) of IL-1b (Final concentration 0.25 ng/mL) overnight in a 37° C., […] incubator. After 24 hours of incubation, the supernatant was collected and the PGE2 level was detected by using Cisbio HTRF kit (Catalog #62P2APEH). Briefly, 5 μL of sample (100-Fold diluted) was dispensed into each sample well. 5 μL of each Prostaglandin E2 standard (Std 0-Std 7) was dispensed into each standard well. 2.5 μL of Prostaglandin E2-d2 working solution was added to all wells except negative controls and 2.5 μL of Anti-Prostaglandin E2-Eu3+ Cryptate working solution was added to all wells. […] After 5 hours of incubation, the plate sealer was removed and the plate was read on a HTRF® compatible reader. Delta F and PGE2 level were calculated as per kit instructions. % Fold change was calculated with respect to DMSO control wells.

Series [3] is described as follows: Solubility at pH 7.4. To be noted: pH 7.4. The format is physicochemical.
Series [4] is described as follows: Liver microsome stability assay (HLM). It counts as in vitro ADME. To be noted: human liver microsomes. The method, then:
(§1) A microsomal mixture (microsomes and Kphos buffer) was prepared at a concentration of 1.428 mg/mL in 2 mL tubes. To this microsomal mixture 1.6 μL (1 mM) of test compound and positive control were spiked; from this mixture, 70 μL was transferred to 96 well plate and pre-incubated at 37° C. for 5 min. After pre-incubation, the zero minute time point reaction was stopped using 100 μL of ice-cold acetonitrile containing internal standard and […] (3.33 mM in Kphos buffer) was added. The 45 minute time point reaction was initiated by addition of 30 μL of NADPH (3.33 mM in Kphos buffer) and incubated at 37° C. for 15 and 45 min. Reactions without NADPH and buffer controls (minus NADPH) at 0, 15, and 45 minutes were also incubated to rule out non-NADPH metabolism or chemical instability in the incubation buffer. Incubation reactions were stopped with 100 μL of ice-cold acetonitrile containing internal standard. The plates were centrifuged at 4000 RPM for 15 min and 100 μL aliquots were submitted for analysis by LC-MS/MS. (Verapamil in human liver microsomes (HLM) and rat liver microsomes (RLM) was used as positive controls. Imipramine in mouse liver microsomes (MLM) was used as a positive control.) Samples were monitored for parent compound disappearance in MRM mode (multiple reaction monitoring) using LC-MS/MS. The peak area ratios of analyte versus internal standard were used to calculate the % remaining at the end of 45 minutes in the presence of NADPH.
(In general: Microsomes from liver hold many membrane-bound enzymes, among them those of drug oxidation.)

Series [5] in a line: Liver microsome stability assay (MLM). It counts as in vitro ADME. The following applies: mouse liver microsomes. An outline of the steps:
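Mouse, rat or human liver microsomes (mixture at 1.428 mg/mL) in potassium phosphate buffer, 37 °C, incubated with compound after NADPH addition; minus-NADPH controls included. Parent loss by LC-MS/MS (MRM) with internal standard; value is % remaining at 45 min with NADPH.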

The nature of series [6]: Liver microsome stability assay (RLM). It counts as in vitro ADME. The following applies: rat liver microsomes. As for the experimental part: as §1

15-PGDH/HPGD, sequence (P15428 whole entry): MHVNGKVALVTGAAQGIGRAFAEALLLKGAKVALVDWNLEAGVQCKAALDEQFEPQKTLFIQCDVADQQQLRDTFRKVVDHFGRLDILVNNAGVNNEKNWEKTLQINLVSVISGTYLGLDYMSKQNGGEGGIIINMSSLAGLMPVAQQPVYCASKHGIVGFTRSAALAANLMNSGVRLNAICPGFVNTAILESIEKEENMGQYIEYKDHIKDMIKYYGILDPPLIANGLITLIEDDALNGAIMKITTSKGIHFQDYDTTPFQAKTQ

As to `N#Cc1ccc(-n2ccc3cc(C(=O)N4CCC(F)CC4)cnc32)cc1` [MF-DH-342], in series [1], the IC50 was less than 100 nM. Besides, the “activity in the A549 cell-based assay (FIG. 1)” value in series [2] is listed as “displayed activity”.
Turning to `O=C(c1cnc2c(c1)ncn2-c1cccc(Cl)c1)N1CCCCC1` [MF-PGDH-020], the IC50 in series [1] was less than 100 nM. Moreover, the “Solubility: Solubility at pH 7.4 (μM)” value in series [3] is given as 150 μM. Further, the “HLM + NADPH (% remaining at 45 min)” value in series [4] stood at 87%. In addition, in series [5], the “MLM + NADPH (% remaining at 45 min)” value is given as 30%. For the same compound, in series [6], the “RLM + NADPH (% remaining at 45 min)” value was 23%.
Take `COc1ccc(-n2cnc3cc(C(=O)N4CCC(F)(F)CC4)cnc32)cc1` [MF-PGDH-079]: the half-maximal inhibitory concentration (IC50) in series [1] was less than 100 nM. Further, in series [3], the “Solubility: Solubility at pH 7.4 (μM)” value is recorded as 140 μM. Further, in series [4], the “HLM + NADPH (% remaining at 45 min)” value stood at 100%. In addition, the “RLM + NADPH (% remaining at 45 min)” value in series [6] was 87%.

The term IC50 denotes the concentration at which inhibition is half-maximal.
